Values joined by “and” are separate entries in the source; they are usually repeats but may differ in a detail not shown here. Equal entries are not always repeated. Where two headings read alike, the source gives them in different places.

What all share (type): binding
Assay [1] has as its target T1, hMcl-1 (Homo sapiens, UniProt Q07820).
T1 construct: His tag (N); made in house; host or cells: E. coli BL21 (DE3) gold pLysS
As to the kind of experiment: 1D 1H NMR aliphatic region chemical shift perturbation / titration. As to conditions: for CSP1 (Table S3) / CSP1 (Table S4): total shift of the two peaks overlapping at -0.616 ppm. The text has this:
(§1) Perturbations observed by ligand binding can be measured and qualitatively used to roughly rank order compound binding, or compound mixtures in this case, in the initial screening campaign (Figure 2). As a control, we used a potent hMcl-1 binding ligand A1210477[37] (Figure 2A).
(§2) NMR spectra were acquired on a Bruker Avance III 700 MHz spectrometer equipped with a TCI cryoprobe. All NMR data were processed and analyzed using TopSpin 4.1.0 (Bruker, Billerica, MA). For the mixture screening, each of the 96 mixtures was dissolved into a 5 mm NMR tube to a final concentration of 2 mM in the presence of 20 μM hMcl-1 in a buffer containing 40 mM Tris pH = 7.5, 150 mM NaCl, and 1 mM DTT. For each mixture, 1D ^1H-aliph experiments were acquired. For ranking purposes, a total chemical shift perturbation generated by each mixture to the five peaks around 0 ppm in the 1D ^1H-aliph spectra of hMcl-1 was considered (Figure 4). 2D-[^13C,^1H]-HSQC experiments were acquired with 20 μM protein using 32 scans with 2048 and 256 complex data points in the ^1H and ^13C dimensions, respectively, at 298 K.

Assay [2] addresses T1, hMcl-1. Briefly: Isothermal titration calorimetry. As for the experimental part: Isothermal titration calorimetry measurements were performed using an Affinity ITC autosampler from TA Instruments (New Castle, DE). The titrations were performed in a direct fashion by titrating the ligand solution into the protein. All the measurements were performed at 25 °C dissolving the agents in 50 mM phosphate at pH 7.5, 150 mM NaCl, and a final DMSO concentration of 1%. To test compound 12, the syringe was filled with a 2 mM solution of compound 12, and 20 injections of 5 μL each were performed into the cell containing a 100 μM solution of the protein. The injections were made at 200 s intervals with a stirring speed of 75 rpm. To test compound 50, the syringe was filled with a 500 μM solution of compound 50, and 20 injections of 5 μL each were performed into the cell containing a 50 μM solution of the protein. The injections were made at 200 s intervals with a stirring speed of 75 rpm. All the solutions were kept in the autosampler at 4 °C. The analysis of the thermodynamics signatures and for dissociation constant determination was performed by NanoAnalyze software (TA Instruments, New Castle, DE) and subsequently exported into Microsoft Excel.

The next assay has as its target T2, 13Cε-Met-labeled hMcl-1 (Homo sapiens, UniProt Q07820).
T2 construct: His tag (N); made in house; host or cells: E. coli BL21 (DE3) gold pLysS
Briefly: 2D [13C,1H] correlation spectra with 13Cε-Met-labeled hMcl-1.
Source text: To further corroborate the possible binding location and pose of the agent, we collected NMR experiments with a selectively ^13C^ε-Met-labeled hMcl-1.[1] In the sequence of hMcl-1, there are 4 Met residues, where two located outside the biding pocket, namely, Met 170 and Met 199, while two Met residues are directly present in the BH3 binding pocket, namely, Met 231 and Met 250 (Figure 8). […] Smaller yet still relatively large perturbations were also observed in the resonances of Met 250, located also across the indole in our model but not as directly juxtaposed as Met 231 with our ligand (Figure 8). […] This piece of data supports the location of the binding of our agent and possibly also corroborates its predicted binding pose.
as §2, with “2D-[^13C,^1H]-HSQC experiments were acquired with 20 μM protein using 32 scans with 2048 and 256 complex data points in the ^1H and ^13C dimensions, respectively, at 298 K.” left out

In a further assay the target is T3, hBfl-1 (Homo sapiens, UniProt Q16548).
T3 sequence (Q16548 1-175): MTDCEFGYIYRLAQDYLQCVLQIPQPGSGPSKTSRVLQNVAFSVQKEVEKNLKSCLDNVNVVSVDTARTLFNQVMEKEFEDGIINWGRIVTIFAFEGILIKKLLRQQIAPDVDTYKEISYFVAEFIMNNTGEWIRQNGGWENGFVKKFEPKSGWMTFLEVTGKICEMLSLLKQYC
As to the kind of experiment: DELFIA displacement assay, hBfl-1. As to conditions: hBfl-1 15 nM. As for the experimental part:
(§3) Each well of 96-well streptavidin-coated plates (PerkinElmer) was incubated with 100 μL of a 600 ng/mL biotinylated-BH3 peptide of sequence biotin-amino-hexanoic acid-[…]-NH2 for 2 h and washed 3 times with a wash solution (PerkinElmer). Subsequently, a mixture containing 11 μL of protein and a serial dilution of the test compounds as well as 89 μL of an Eu-N1-labeled anti-6x-His antibody (PerkinElmer) was added to each well and incubated for 2 h. Plates were then washed 3 times, and 200 μL of enhancement solution (PerkinElmer) was added to each well. After a 10 min incubation, fluorescence measurements were taken with a Victor X5 microplate reader with the excitation and emission wavelengths of 340 and 615, respectively. All the incubations were performed at room temperature. The final protein concentrations used for hBfl-1 and hMcl-1 were 15 and 16 nM, respectively and the final anti-6x-His antibody used was 22.2 ng/well. Fluorescence readings were normalized to those of 1% DMSO-treated wells and reported as % inhibition. Prism 9 (GraphPad) was used to calculate IC50 values.

Assay [3] addresses T1, hMcl-1. As to the kind of experiment: DELFIA displacement assay, biotinylated BH3 peptide from hMcl-1. Conditions: for IC50: hMcl-1 16 nM, room temperature. Here is the method:
as §1, §3

[4] abbreviates: 25 °C, pH 7.5, 1% DMSO, read-out: Kd by isothermal titration calorimetry.
Where [5] appears, read: supplementary CSV, values match ITC, read-out: Kd (uM) (n=2).

T1 sequence (Q07820 172-323): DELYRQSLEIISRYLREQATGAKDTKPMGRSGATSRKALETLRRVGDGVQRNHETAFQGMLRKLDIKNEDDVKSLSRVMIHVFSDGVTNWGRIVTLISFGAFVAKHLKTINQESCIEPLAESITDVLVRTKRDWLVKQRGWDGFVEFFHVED
T2 sequence (Q07820 172-323): as above

With `COc1cc(C)c(C(C)C)cc1S(=O)(=O)N[C@H](CC(=O)O)C(=O)N[C@@H](CC1CCCCC1)C(N)=O` [Compound 13], the “CSP1 (Table S3)” value at hMcl-1 [1] (listed as Compound (13)) is “+ (0.01 ppm < CSP < 0.05 ppm)”.
In the case of `COc1cc(C)c(C(C)C)cc1S(=O)(=O)N[C@@H](CCC(=O)O)C(=O)N[C@@H](CC1CCCCC1)C(N)=O` [Compound 14], on hMcl-1 [1], the “CSP1 (Table S3)” value is given as “+ (0.01 ppm < CSP < 0.05 ppm)”.
The same measure, in the same setting: in the case of `COc1cc(C)c(C(C)C)cc1S(=O)(=O)N[C@H](CCC(=O)O)C(=O)N[C@@H](CC1CCCCC1)C(N)=O` [Compound 15] it was “+ (0.01 ppm < CSP < 0.05 ppm)”.
For the compound `COc1cc(C)c(C(C)C)cc1S(=O)(=O)N[C@H](CC(=O)O)C(=O)N[C@@H](CC1CCCCC1)C(=O)N[C@H](Cc1c[nH]c2ccccc12)C(N)=O` [Compound 21, (R)-4-(((S)-1-(((R)-1-Amino-3-(1H-indol-3-yl)-1-oxopropan-2-yl)amino)-3-cyclohexyl-1-oxopropan-2-yl)amino)-3-((5-isopropyl-2-methoxy-4-methylphenyl)sulfonamido)-4-oxobutanoic Acid], at hMcl-1 [1] (20 μM hMcl-1, compound 100 μM), the “CSP in the 1D-1H-aliphatic region of hMcl-1, comparison among P4 compounds” value was “bigger CSP”. Also, at hMcl-1 [1] (1D 1H NMR, hMcl-1 20 μM, read-out: dissociation constant estimated by NMR titration), the Kd was about 30 µM. The “CSP1 (Table S4)” value on hMcl-1 [1] is recorded as “+++ (0.1 ppm < CSP < 0.13 ppm)”.
Take `COc1ccc(C(C)C)cc1S(=O)(=O)NC(CC(=O)O)C(=O)N1C(C(=O)NC(Cc2c[nH]c3ccccc23)C(N)=O)CC2CCCCC21` (stereo not shown) [Compound 60]: the Kd was 2.84 ± 0.67 µM at hMcl-1 [2] (setting [4]) and 2.84 ± 0.7 µM at hMcl-1 [2] (setting [5]).
In the case of `COc1cc(C)c(C(C)C)cc1S(=O)(=O)NC(CC(=O)O)C(=O)N1C(C(=O)NC(Cc2c[nH]c3ccccc23)C(N)=O)CC2CCCCC21` [Compound 50, (3R)-4-((2S)-2-(((S)-1-Amino-3-(1H-indol-3-yl)-1-oxopropan-2-yl)carbamoyl)octahydro-1H-indol-1-yl)-3-((5-isopropyl-2-methoxy-4-methylphenyl)sulfonamido)-4-oxobutanoic Acid], at 13Cε-Met-labeled hMcl-1 (20 μM 13Cε-Met hMcl-1, read-out: koff, estimated upper limit from Met 231 chemical shift differences (slow exchange)), the koff is under 519 s⁻¹. In addition, at 13Cε-Met-labeled hMcl-1 (assuming diffusion limited on rate of 10^9 M^–1 s^–1), the “dissociation constant corresponding to off-rate” value is on record as “low micromolar”. In addition, the “CSP2 (Table S4)” value on hMcl-1 [1] (shift of the peak at -0.08 ppm, 1D-1H-aliphatic spectrum) is on record as “+ (0.01 ppm < CSP < 0.05 ppm)”. On hMcl-1 [1], the “CSP1 (Table S4)” value is “+++ (0.1 ppm < CSP < 0.13 ppm)”. On hMcl-1 [2] (25 °C), the “ΔH, isothermal titration calorimetry” value was -10 kcal/mol. Also, the Kd on hMcl-1 [2] (setting [4]) is ~2 µM and 1.71 µM; at hMcl-1 [2] (setting [5]), 1.71 ± 0.3 µM. In addition, at hMcl-1 [2] (from ITC Kd), the LE is on record as about 0.16. The “activity against hBfl-1 in DELFIA displacement assay” value on hBfl-1 is “inactive”. The IC50 on hMcl-1 [3] (read-out: IC50, displacement of biotinylated-BIM peptide from hMcl-1 (DELFIA)) was found to be 7.5 µM.
As to `Cc1nn(C)c(COc2ccc(N3CCN(S(=O)(=O)N(C)C)CC3)cc2)c1-c1cccc2c(CCCOc3cccc4ccccc34)c(C(=O)O)n(CCN3CCOCC3)c12` [Compound A1210477], on hMcl-1 [3] (from DELFIA IC50), the LE was about 0.17. In addition, on hMcl-1 [3] (read-out: IC50, displacement of biotinylated BH3 peptide from hMcl-1 (DELFIA)), the IC50 is 0.014 µM.
In the case of `COc1ccc2[nH]cc(CC(NC(=O)C3CC4CCCCC4N3C(=O)C(CC(=O)O)NS(=O)(=O)c3cc(C(C)C)c(C)cc3OC)C(N)=O)c2c1` (stereo not shown) [Compound 59], the figures for the Kd at hMcl-1 [2] (setting [4]) and at hMcl-1 [2] (setting [5]) were 4.62 ± 0.37 µM and 4.62 ± 0.4 µM, respectively.
As to `COc1cc(C)c(C(C)C)cc1S(=O)(=O)N[C@H](CC(=O)O)C(=O)N[C@@H](CC1CCCCC1)C(N)=O` [Compound 12, (R)-4-(((S)-1-Amino-3-cyclohexyl-1-oxopropan-2-yl)amino)-3-((5-isopropyl-2-methoxy-4-methylphenyl)sulfonamido)-4-oxobutanoic Acid], the “dissociation constant estimated by NMR titration” value on hMcl-1 [1] (1D 1H NMR, hMcl-1 20 μM) is recorded as “triple-digit micromolar”. Also, at hMcl-1 [1] (listed as Compound (12)), the “CSP1 (Table S3)” value is “++ (0.05 ppm < CSP < 0.1 ppm)”. Besides, the Kd on hMcl-1 [2] (setting [4]) was about 450 µM.

The values are drawn from publication PMC10388297, “Mixture-Based Screening of Focused Combinatorial Libraries by NMR: Application to the Antiapoptotic Protein hMcl-1” (Journal of Medicinal Chemistry, 2023).
